≈ marks a conversion by molar mass, not a printed value.
Experiments:
S. aureus ATCC 13709 = assay: MIC, antibacterial potency, S. aureus; type: cell-based; settings: S. aureus
S. pneumoniae ATCC 51916 = assay: MIC, S. pneumoniae; type: cell-based; settings: S. pneumoniae

MIC, SA (S. aureus ATCC 13709)	MIC Spn52 (S. pneumoniae ATCC 51916)	SMILES
64 µg/mL (≈ 201 µM)		CCc1[nH]c2nc(Sc3cccnc3)nc(Cl)c2c1C=O [700,075]
> 64 µg/mL		CCc1[nH]c2nc(Sc3cccnc3)nc(NCC(C)C)c2c1C=O [700,076]
> 64 µg/mL		CCc1[nH]c2nc(Sc3cccnc3)nc(NCc3ccc(C)o3)c2c1C=O [700,077]
> 64 µg/mL		CCc1[nH]c2nc(Sc3cccnc3)nc(NCC3CCCCC3)c2c1C=O [700,078]
> 64 µg/mL		CCc1[nH]c2nc(Sc3cccnc3)nc(NCCOc3ccccc3)c2c1C=O [700,079]
> 64 µg/mL		CCc1[nH]c2nc(Sc3cccnc3)nc(NCc3ccccc3)c2c1C=O [700,080]
> 64 µg/mL		CCOCCNc1nc(Sc2cccnc2)nc2[nH]c(CC)c(C=O)c12 [700,082]
> 64 µg/mL		CCc1[nH]c2nc(Sc3cccnc3)nc(N3CCN(C(C)C)CC3)c2c1C=O [700,084]
> 64 µg/mL		CCc1[nH]c2nc(Sc3cccnc3)nc(N3CCN(CC(=O)N(C)C)CC3)c2c1C=O [700,085]
> 64 µg/mL		CCc1[nH]c2nc(Sc3cccnc3N)nc(Cl)c2c1C=O [700,088]
> 64 µg/mL		CCc1[nH]c2nc(Sc3cccnc3)nc(NCC(O)CO)c2c1C=O (centres unmarked) [700,090]
> 64 µg/mL		CCc1[nH]c2nc(Sc3cccnc3)nc(NCc3ccccc3OC)c2c1C=O [700,091]
64 µg/mL (≈ 167 µM)		CCc1[nH]c2nc(Sc3cccnc3)nc(NCC3CCCO3)c2c1C=O (centres unmarked) [700,092]
> 64 µg/mL		CCc1[nH]c2nc(Sc3cccnc3)nc(NC(C)C)c2c1C=O [700,093]
64 µg/mL (≈ 179 µM)		CCc1[nH]c2nc(Sc3cccnc3)nc(NCCOC)c2c1C=O [700,094]
> 64 µg/mL		CCc1[nH]c2nc(Sc3cccnc3)nc(NCCO)c2c1C=O [700,096]
> 64 µg/mL		CCc1[nH]c2nc(Sc3nc4ccccc4s3)nc(Cl)c2c1C=O [700,099]
> 64 µg/mL		CCc1[nH]c2nc(Sc3nc4ccccc4s3)nc(NC[C@H](C)O)c2c1C=O [700,100]
> 64 µg/mL		CCc1[nH]c2nc(Sc3nc4ccccc4s3)nc(NC(C)C)c2c1C=O [700,101]
> 64 µg/mL		CCc1[nH]c2nc(Sc3nc4ccccc4s3)nc(NCCN3CCOCC3)c2c1C=O [700,102]
> 64 µg/mL		CCc1[nH]c2nc(Sc3nc4ccccc4s3)nc(NCc3cccnc3)c2c1C=O [700,103]
> 64 µg/mL		C#CCNc1nc(Sc2nc3ccccc3s2)nc2[nH]c(CC)c(C=O)c12 [700,104]
> 64 µg/mL		CCNc1nc(Sc2nc3ccccc3s2)nc2[nH]c(CC)c(C=O)c12 [700,105]

MIC, SA (S. aureus ATCC 13709)	MIC Spn52 (S. pneumoniae ATCC 51916)	SMILES
> 64 µg/mL		CCc1[nH]c2nc(Sc3nc4ccccc4s3)nc(NCCCN3CCOCC3)c2c1C=O [700,106]
> 64 µg/mL		CCc1[nH]c2nc(Sc3nc4ccccc4s3)nc(NCCCn3ccnc3)c2c1C=O [700,107]
> 64 µg/mL		CCc1[nH]c2nc(Sc3nc4ccccc4s3)nc(NN)c2c1C=O [700,108]
> 64 µg/mL		CCc1[nH]c2nc(Sc3nc4ccccc4s3)nc(Cl)c2c1CO [700,109]
64 µg/mL (≈ 192 µM)		CCc1[nH]c2nc(Sc3cccnc3)nc(Cl)c2c1C(C)=O [700,119]
32 µg/mL (≈ 75.9 µM)		CCc1[nH]c2nc(Sc3cccnc3)nc(NCCCn3ccnc3)c2c1C(C)=O [700,121]
> 64 µg/mL		CCc1[nH]c2nc(Sc3cccnc3)nc(NC(C)C)c2c1C(C)=O [700,122]
> 64 µg/mL		CCc1[nH]c2nc(Sc3cccc(C(=O)O)c3)nc(NC[C@H](C)O)c2c1C=O [700,127]
16 µg/mL (≈ 50.9 µM)		CCc1[nH]c2nc(Sc3cccnc3)nc(OC)c2c1C=O [700,129]
8 µg/mL (≈ 24.4 µM)		CCOc1nc(Sc2cccnc2)nc2[nH]c(CC)c(C=O)c12 [700,130]
64 µg/mL (≈ 179 µM)		CCc1[nH]c2nc(Sc3cccnc3)nc(N[C@H](C)CO)c2c1C=O [700,131]
32 µg/mL (≈ 80.5 µM)		CCc1[nH]c2nc(Sc3cccnc3)nc(NC3CCCC[C@H]3O)c2c1C=O (some centres unmarked) [700,132]
> 64 µg/mL		CCc1[nH]c2nc(Sc3cccnc3)nc(N[C@H]3CCCC[C@@H]3N)c2c1C=O [700,133]
> 64 µg/mL		CCOC(=O)c1ccc(CNc2nc(Sc3cccnc3)nc3[nH]c(CC)c(C=O)c23)o1 [700,135]
16 µg/mL (≈ 48.9 µM)		CCc1[nH]c2nc(Sc3cccnc3)nc(N(C)C)c2c1C=O [700,136]
64 µg/mL (≈ 166 µM)		CCc1[nH]c2nc(Sc3cccnc3)nc(N(C)CCN(C)C)c2c1C=O [700,137]
64 µg/mL (≈ 155 µM)		CCc1[nH]c2nc(Sc3cccnc3)nc(NCCCCCC(=O)O)c2c1C=O [700,141]
32 µg/mL (≈ 71.5 µM)		CCc1[nH]c2nc(Sc3cccnc3)nc(NC34CC5CC(C3)C(=O)C(C5)C4)c2c1C=O [700,142]
> 64 µg/mL		CCc1[nH]c2nc(Sc3nc4ccccc4s3)nc(N)c2c1C [700,147]
> 64 µg/mL		CCc1[nH]c2nc(SCc3cccnc3)nc(N)c2c1C [700,148]
> 64 µg/mL		CCc1[nH]c2nc(Sc3cnc4ccccc4n3)nc(N)c2c1C [700,149]
32 µg/mL (≈ 72.2 µM)	64 µg/mL (≈ 144 µM)	CCOc1nc(Sc2nc(C(=O)OC)cs2)nc2[nH]c(CC)c(Br)c12 [700,281]
≤ 0.5 µg/mL	4 µg/mL (≈ 9.63 µM)	CCc1[nH]c2nc(Sc3nc(C(=O)OC)cs3)nc(O)c2c1Br [700,282]

MIC, SA (S. aureus ATCC 13709)	MIC Spn52 (S. pneumoniae ATCC 51916)	SMILES
4 µg/mL (≈ 9.32 µM)	32 µg/mL (≈ 74.5 µM)	CCOc1nc(Sc2nc(C(=O)O)cs2)nc2[nH]c(CC)c(Br)c12 [700,286]
> 64 µg/mL	> 64 µg/mL	CCc1[nH]c2nc(Sc3cccnc3)nc(NCCNc3ccc(C(=O)O)cn3)c2c1C=O [700,287]
> 64 µg/mL	64 µg/mL (≈ 184 µM)	CCOc1nc(S(C)(=O)=O)nc2[nH]c(CC)c(Br)c12 [700,288]
> 64 µg/mL	> 64 µg/mL	CCOC(=O)c1coc(Sc2nc(OCC)c3c(Br)c(CC)[nH]c3n2)n1 [700,290]
> 64 µg/mL	> 64 µg/mL	CCOC(=O)c1cnc(Sc2nc(OCC)c3c(Br)c(CC)[nH]c3n2)s1 [700,291]
> 64 µg/mL	> 64 µg/mL	CCOc1nc(Sc2nc(C(=O)O)co2)nc2[nH]c(CC)c(Br)c12 [700,292]
32 µg/mL (≈ 74.5 µM)	32 µg/mL (≈ 74.5 µM)	CCOc1nc(Sc2ncc(C(=O)O)s2)nc2[nH]c(CC)c(Br)c12 [700,293]
> 64 µg/mL	> 64 µg/mL	CCOc1nc(Sc2nc(C(=O)N[C@H]3CCOC3=O)co2)nc2[nH]c(CC)c(Br)c12 [700,294]
> 64 µg/mL	32 µg/mL (≈ 66.6 µM)	CCc1[nH]c2nc(Sc3cccc(NC(=O)OC)c3)nc(NC[C@H](C)O)c2c1Br [700,295]
> 64 µg/mL	64 µg/mL (≈ 145 µM)	CCc1[nH]c2nc(Sc3cccc(CC(=O)OC)c3)nc(Cl)c2c1Br [700,296]
≤ 0.5 µg/mL	2 µg/mL (≈ 4.64 µM)	CCOc1nc(Sc2cnc3cccnc3n2)nc2[nH]c(CC)c(Br)c12 [700,297]
2 µg/mL (≈ 5.17 µM)	8 µg/mL (≈ 20.7 µM)	CCOc1nc(Sc2cnc3cccnc3n2)nc2[nH]c(CC)c(Cl)c12 [700,298]
64 µg/mL (≈ 132 µM)	> 64 µg/mL	CCOc1nc(Sc2nc(C(=O)OC)c(C(C)C)s2)nc2[nH]c(CC)c(Br)c12 [700,301]
32 µg/mL (≈ 72.6 µM)	> 64 µg/mL	CCOc1nc(Sc2nc(C(=O)OC)c(C(C)C)s2)nc2[nH]c(CC)c(Cl)c12 [700,302]
4 µg/mL (≈ 8.49 µM)	32 µg/mL (≈ 67.9 µM)	CCOc1nc(Sc2nc(C(=O)O)c(C(C)C)s2)nc2[nH]c(CC)c(Br)c12 [700,303]
8 µg/mL (≈ 18.1 µM)	32 µg/mL (≈ 72.6 µM)	CCOc1nc(Sc2nc(C(=O)OC)c(C(C)C)s2)nc2[nH]c(CC)c(Cl)c12 [700,304]
> 64 µg/mL	> 64 µg/mL	CCOc1nc(Sc2cc(C(=O)NC3CC3)ccn2)nc2[nH]c(CC)c(Br)c12 [700,305]
> 64 µg/mL	> 64 µg/mL	CCOc1nc(Sc2cc(C(=O)NC3CC3)ccn2)nc2[nH]c(CC)c(Cl)c12 [700,306]
4 µg/mL (≈ 9.37 µM)	64 µg/mL (≈ 150 µM)	CCc1[nH]c2nc(Sc3cccc(CC(=O)O)c3)nc(Cl)c2c1Br [700,307]
> 64 µg/mL	> 64 µg/mL	CCc1[nH]c2nc(Sc3nc(C(=O)OC)cs3)nc(Cl)c2c1Cl [700,320]
	8 µg/mL (≈ 14.7 µM)	CCc1[nH]c2nc(Sc3cc(=O)n(CCc4ccccc4)c(=O)[nH]3)nc(N3CC(O)C3)c2c1Br [700,413]

SMILES	MIC, SA (S. aureus ATCC 13709)	MIC Spn52 (S. pneumoniae ATCC 51916)
CCc1[nH]c2nc(Sc3cccnc3)nc(NCc3cccc(S(C)(=O)=O)c3)c2c1C=O.Cl [700,098]	> 64 µg/mL	
CCc1nc2c(N(C)C)nc(Sc3cccc(C(=O)O)c3)nc2[nH]1.O=C(O)C(F)(F)F [700,220]	> 64 µg/mL	64 µg/mL
CCc1[nH]c2nc(Sc3cccnc3)nc(NCCCn3ccnc3)c2c1C=O.O=C(O)C(F)(F)F.O=C(O)C(F)(F)F [700,261]	16 µg/mL	32 µg/mL
CCc1[nH]c2nc(Sc3cccnc3)nc(Cl)c2c1Br.O=C(O)C(F)(F)F [700,267]	2 µg/mL	16 µg/mL
CCc1[nH]c2nc(Sc3cccnc3)nc(Cl)c2c1Cl.O=C(O)C(F)(F)F [700,268]	4 µg/mL	16 µg/mL
CCc1[nH]c2nc(Sc3cccnc3)nc(NCCCn3ccnc3)c2c1Br.O=C(O)C(F)(F)F.O=C(O)C(F)(F)F [700,269]	4 µg/mL	16 µg/mL
CCc1[nH]c2nc(Sc3cccnc3)nc(NC[C@H](C)O)c2c1Br.O=C(O)C(F)(F)F [700,270]	2 µg/mL	8 µg/mL
CCc1[nH]c2nc(Sc3cccnc3)nc(NCc3ccccc3OC)c2c1Br.O=C(O)C(F)(F)F [700,271]	> 64 µg/mL	> 64 µg/mL
CCc1[nH]c2nc(Sc3cccnc3)nc(NC[C@H](C)O)c2c1Cl.O=C(O)C(F)(F)F [700,273]	4 µg/mL	16 µg/mL
CCc1[nH]c2nc(Sc3cccnc3)nc(NCCCn3ccnc3)c2c1Cl.O=C(O)C(F)(F)F [700,274]	4 µg/mL	16 µg/mL
CCOc1nc(Sc2cccnc2)nc2[nH]c(CC)c(Br)c12.O=C(O)C(F)(F)F [700,275]	1 µg/mL	8 µg/mL
Fc1ccc(Oc2nc(Nc3cccnc3)nc3[nH]cc(Br)c23)c(F)c1.O=C(O)C(F)(F)F [700,315]	16 µg/mL	64 µg/mL
CCc1[nH]c2nc(Sc3nc(C(=O)O)cs3)nc(N3CC(Cc4c(Cl)ncnc4Cl)C3)c2c1Cl.O=C(O)C(F)(F)F [700,317]	> 64 µg/mL	> 64 µg/mL
CCc1[nH]c2nc(Sc3nc(C(=O)O)cs3)nc(N3CC(Cc4cncnc4)C3)c2c1Cl.O=C(O)C(F)(F)F [700,318]	> 64 µg/mL	> 64 µg/mL

Source: patent publication US10047105B2, “Gyrase inhibitors” (Merck Sharp & Dohme Corp., priority 2009, dated 2018)
